Assays:
Assay type in all cases: cell-based
Human Nav1.8 = molecular target: T1, Human Nav1.8 (Homo sapiens, UniProt Q9Y5Y9); assay: VIPR Assay for Nav1.8 Compounds (FRET membrane potential, deltamethrin opener); details: HEK293 cells expressing Human Nav1.8; deltamethrin as opener; average of replicates
T1 construct: expressed in transfected cells; host or cells: HEK293 (selected with Geneticine)

Human Nav1.5 = molecular target: T2, Human Nav1.5 (Homo sapiens, UniProt Q14524); assay: Nav1.5 Assay (VIPR, as Nav1.8 assay); details: HEK293 cells expressing Human Nav1.5; average of replicates
T2 construct: expressed in transfected cells; host or cells: HEK293
Description: The Nav1.5 assay is performed in HEK293 cells expressing Human Nav1.5 in the same way as the Nav1.8 assay described above.

[1] = test system: tetrodotoxin-sensitive voltage-gated sodium channels including NaV1.2, NaV1.3 and NaV1.7; assay: TTX-S Assay in SHSY-5Y cell line (VIPR, veratridine opener); details: read-out: TTX-S IC50, veratridine 50 μM as opener, average of replicates

T2 sequence (Q14524 whole entry): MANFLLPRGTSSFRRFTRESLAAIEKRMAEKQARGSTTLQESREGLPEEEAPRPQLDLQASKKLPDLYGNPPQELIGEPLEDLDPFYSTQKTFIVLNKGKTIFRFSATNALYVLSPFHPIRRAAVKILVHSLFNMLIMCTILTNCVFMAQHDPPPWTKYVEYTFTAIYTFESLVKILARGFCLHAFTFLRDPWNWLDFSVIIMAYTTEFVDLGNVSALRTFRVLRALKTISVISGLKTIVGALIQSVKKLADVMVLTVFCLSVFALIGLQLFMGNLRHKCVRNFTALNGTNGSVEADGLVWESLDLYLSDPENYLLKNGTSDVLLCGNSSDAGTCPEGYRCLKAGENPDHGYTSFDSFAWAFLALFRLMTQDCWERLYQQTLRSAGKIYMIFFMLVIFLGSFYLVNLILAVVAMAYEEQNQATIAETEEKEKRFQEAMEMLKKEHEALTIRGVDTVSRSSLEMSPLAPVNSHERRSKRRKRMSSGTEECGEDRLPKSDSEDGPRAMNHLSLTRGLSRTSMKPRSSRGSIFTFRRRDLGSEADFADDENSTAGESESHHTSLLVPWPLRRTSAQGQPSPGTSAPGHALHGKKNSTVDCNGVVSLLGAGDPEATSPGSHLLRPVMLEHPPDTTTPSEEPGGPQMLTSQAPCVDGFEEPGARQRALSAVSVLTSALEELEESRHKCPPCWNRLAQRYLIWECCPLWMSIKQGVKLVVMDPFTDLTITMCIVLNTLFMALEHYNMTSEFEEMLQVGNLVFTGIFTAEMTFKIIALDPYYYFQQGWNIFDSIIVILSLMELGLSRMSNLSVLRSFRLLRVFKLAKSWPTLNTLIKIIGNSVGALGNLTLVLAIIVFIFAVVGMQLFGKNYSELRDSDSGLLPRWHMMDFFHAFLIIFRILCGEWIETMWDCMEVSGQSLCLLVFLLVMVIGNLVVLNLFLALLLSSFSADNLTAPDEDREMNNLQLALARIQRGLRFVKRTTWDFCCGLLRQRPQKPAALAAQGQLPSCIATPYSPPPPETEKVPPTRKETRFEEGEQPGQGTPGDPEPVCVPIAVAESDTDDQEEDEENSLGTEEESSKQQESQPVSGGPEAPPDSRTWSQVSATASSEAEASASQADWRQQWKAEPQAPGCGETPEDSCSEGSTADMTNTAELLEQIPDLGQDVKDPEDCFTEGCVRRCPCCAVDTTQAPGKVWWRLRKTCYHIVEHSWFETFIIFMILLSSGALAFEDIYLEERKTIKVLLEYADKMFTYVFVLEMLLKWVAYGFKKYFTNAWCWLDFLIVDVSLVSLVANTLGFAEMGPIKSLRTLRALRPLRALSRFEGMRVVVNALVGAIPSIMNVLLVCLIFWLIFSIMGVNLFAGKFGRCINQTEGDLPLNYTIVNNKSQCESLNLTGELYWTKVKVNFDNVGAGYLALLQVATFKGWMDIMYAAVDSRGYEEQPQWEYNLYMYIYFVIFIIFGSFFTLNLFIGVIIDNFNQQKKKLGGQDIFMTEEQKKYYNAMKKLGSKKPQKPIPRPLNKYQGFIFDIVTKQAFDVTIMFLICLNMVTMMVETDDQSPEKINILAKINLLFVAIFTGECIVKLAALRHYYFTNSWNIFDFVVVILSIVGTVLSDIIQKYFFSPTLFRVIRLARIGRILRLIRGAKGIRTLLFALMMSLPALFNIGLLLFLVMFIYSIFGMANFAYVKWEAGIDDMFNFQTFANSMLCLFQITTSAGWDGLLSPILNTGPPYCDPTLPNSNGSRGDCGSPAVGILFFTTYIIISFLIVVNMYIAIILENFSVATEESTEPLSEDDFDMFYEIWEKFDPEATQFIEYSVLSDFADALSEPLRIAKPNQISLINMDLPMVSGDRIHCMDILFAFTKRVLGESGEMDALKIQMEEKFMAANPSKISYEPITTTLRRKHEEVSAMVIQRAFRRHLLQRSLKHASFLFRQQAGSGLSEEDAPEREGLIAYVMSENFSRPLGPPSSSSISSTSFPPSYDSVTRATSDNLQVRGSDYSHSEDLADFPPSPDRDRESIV
T1 sequence (Q9Y5Y9 whole entry): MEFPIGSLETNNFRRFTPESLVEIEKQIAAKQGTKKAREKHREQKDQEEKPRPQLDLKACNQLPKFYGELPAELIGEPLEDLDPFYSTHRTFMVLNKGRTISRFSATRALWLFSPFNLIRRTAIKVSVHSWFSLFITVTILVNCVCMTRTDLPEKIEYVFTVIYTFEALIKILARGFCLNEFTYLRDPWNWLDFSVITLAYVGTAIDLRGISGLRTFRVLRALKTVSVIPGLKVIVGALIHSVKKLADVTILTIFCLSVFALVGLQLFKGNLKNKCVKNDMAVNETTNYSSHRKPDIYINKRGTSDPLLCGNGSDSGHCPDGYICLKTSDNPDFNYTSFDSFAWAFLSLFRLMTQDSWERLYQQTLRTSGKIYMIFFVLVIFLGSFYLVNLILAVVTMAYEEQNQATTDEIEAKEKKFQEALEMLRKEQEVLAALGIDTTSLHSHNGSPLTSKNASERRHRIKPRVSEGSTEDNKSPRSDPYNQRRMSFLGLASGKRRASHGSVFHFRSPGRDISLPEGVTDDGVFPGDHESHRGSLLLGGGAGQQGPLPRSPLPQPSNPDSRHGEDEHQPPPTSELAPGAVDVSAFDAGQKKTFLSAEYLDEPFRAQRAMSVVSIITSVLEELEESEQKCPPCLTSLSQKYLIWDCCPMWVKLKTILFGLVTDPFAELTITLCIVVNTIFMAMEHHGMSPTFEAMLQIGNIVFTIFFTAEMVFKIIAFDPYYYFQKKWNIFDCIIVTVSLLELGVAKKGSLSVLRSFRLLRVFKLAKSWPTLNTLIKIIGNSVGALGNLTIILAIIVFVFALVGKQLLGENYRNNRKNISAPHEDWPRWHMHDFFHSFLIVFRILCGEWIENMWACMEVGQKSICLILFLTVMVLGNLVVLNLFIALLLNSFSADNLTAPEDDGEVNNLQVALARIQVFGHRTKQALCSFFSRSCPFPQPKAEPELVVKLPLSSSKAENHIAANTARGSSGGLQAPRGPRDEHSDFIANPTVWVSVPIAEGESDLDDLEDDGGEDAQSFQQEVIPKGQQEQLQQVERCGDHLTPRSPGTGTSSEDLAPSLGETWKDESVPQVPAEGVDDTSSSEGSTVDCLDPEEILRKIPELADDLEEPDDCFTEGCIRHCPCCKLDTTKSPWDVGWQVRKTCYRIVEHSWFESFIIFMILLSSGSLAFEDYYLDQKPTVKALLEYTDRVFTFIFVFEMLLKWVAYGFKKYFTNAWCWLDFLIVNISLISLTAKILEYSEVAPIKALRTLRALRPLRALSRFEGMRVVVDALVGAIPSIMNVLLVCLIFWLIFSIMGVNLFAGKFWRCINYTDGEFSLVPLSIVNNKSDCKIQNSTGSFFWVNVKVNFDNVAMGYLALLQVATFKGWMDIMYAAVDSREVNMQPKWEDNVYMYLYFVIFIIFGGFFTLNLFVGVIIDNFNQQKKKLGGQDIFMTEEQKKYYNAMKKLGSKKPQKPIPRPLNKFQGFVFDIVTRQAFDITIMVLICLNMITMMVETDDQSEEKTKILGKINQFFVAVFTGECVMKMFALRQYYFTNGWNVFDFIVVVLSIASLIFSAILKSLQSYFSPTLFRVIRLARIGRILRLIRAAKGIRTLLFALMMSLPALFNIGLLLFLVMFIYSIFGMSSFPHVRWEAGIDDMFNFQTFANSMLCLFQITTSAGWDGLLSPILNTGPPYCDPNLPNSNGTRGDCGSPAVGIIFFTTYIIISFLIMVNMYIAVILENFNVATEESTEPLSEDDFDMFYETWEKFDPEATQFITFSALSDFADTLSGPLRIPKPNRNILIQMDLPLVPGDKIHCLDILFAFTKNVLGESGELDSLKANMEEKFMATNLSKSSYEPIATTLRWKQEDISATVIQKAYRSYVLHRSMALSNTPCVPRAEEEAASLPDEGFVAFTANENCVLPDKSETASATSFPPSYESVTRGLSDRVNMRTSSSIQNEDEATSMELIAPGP

Question: How did the IC50 (Human Nav1.8) turn out when `Nc1nc(NC(=O)c2conc2C(F)(F)F)cnc1-c1ccccc1OC(F)(F)F` [Example 12, N-{6-Amino-5-[2-(trifluoromethoxy)phenyl]pyrazin-2-yl}-3-(trifluoromethyl)isoxazole-4-carboxamide] was run?
Answer: 2.8 µM

Question: And the IC50 (Human Nav1.5)?
Answer: > 32 µM

Question: What about the IC50 [1] of the same compound?
Answer: 21 µM

Question: How did the IC50 (Human Nav1.8) turn out when `CCOc1ccc(OC(F)(F)F)c(-c2ncc(NC(=O)c3ccnn3C)nc2N)c1` [Example 16, N-{6-Amino-5-[5-ethoxy-2-(trifluoromethoxy)phenyl]pyrazin-2-yl}-1-methyl-1H-pyrazole-5-carboxamide] was run?
Answer: 19 µM

Question: And the IC50 (Human Nav1.5)?
Answer: > 32 µM

Question: For `Cc1nocc1C(=O)Nc1cnc(-c2ccccc2C(F)(F)F)c(N)n1` [Example 2, N-{6-Amino-5-[2-(trifluoromethyl)phenyl]pyrazin-2-yl}-3-methylisoxazole-4-carboxamide], which IC50 (Human Nav1.8) is on record?
Answer: 8.7 µM

Question: What about the IC50 [1] of the same compound?
Answer: > 32 µM

Question: Which IC50 (Human Nav1.8) does the source give for `Cn1nccc1C(=O)Nc1cnc(-c2cc(F)ccc2OC(F)(F)F)c(N)n1` [Example 15] here?
Answer: 16 µM

Question: And the IC50 (Human Nav1.5)?
Answer: > 32 µM

Question: What about the IC50 [1] of the same compound?
Answer: > 32 µM

Question: What does the source list for `Cc1nocc1C(=O)Nc1cnc(-c2cc(Cl)ccc2OC(F)(F)F)c(N)n1` [Example 3, N-{6-Amino-5-[5-chloro-2-(trifluoromethoxy)phenyl]pyrazin-2-yl}-3-methylisoxazole-4-carboxamide]?
Answer: IC50 (Human Nav1.8): 4.3 µM; IC50 (Human Nav1.5): > 32 µM; IC50 [1]: 16 µM

Question: `Cc1nocc1C(=O)Nc1cnc(-c2ccccc2OC(F)(F)F)c(N)n1` [Example 1, N-{6-Amino-5-[2-(trifluoromethoxy)phenyl]pyrazin-2-yl}-3-methylisoxazole-4-carboxamide] was tested. Which IC50 (Human Nav1.8) did it give?
Answer: 3.6 µM

Question: And the IC50 (Human Nav1.5)?
Answer: > 32 µM

Question: And the IC50 [1]?
Answer: 30 µM

Question: What does the source list for `COCc1nocc1C(=O)Nc1cnc(-c2cc(F)ccc2C(F)(F)F)c(N)n1` [Example 8, N-{6-Amino-5-[5-fluoro-2-(trifluoromethyl)phenyl]pyrazin-2-yl}-3-(methoxymethyl)isoxazole-4-carboxamide]?
Answer: IC50 (Human Nav1.8): 11 µM; IC50 (Human Nav1.5): > 32 µM

Question: `CCn1nccc1C(=O)Nc1cnc(-c2ccccc2OC(F)(F)F)c(N)n1` [Example 4, N-{6-Amino-5-[2-(trifluoromethoxy)phenyl]pyrazin-2-yl}-1-ethyl-1H-pyrazole-5-carboxamide] was tested. Which IC50 (Human Nav1.8) did it give?
Answer: 27 µM

Question: What about the IC50 (Human Nav1.5) of the same compound?
Answer: > 32 µM

Question: And the IC50 [1]?
Answer: > 32 µM

Question: `Cc1nocc1C(=O)Nc1cnc(-c2cc(F)ccc2OC(F)(F)F)c(N)n1` [Example 13, N-{6-Amino-5-[5-fluoro-2-(trifluoromethoxy)phenyl]pyrazin-2-yl}-3-methylisoxazole-4-carboxamide] was tested. Which IC50 (Human Nav1.8) did it give?
Answer: 3.8 µM

Question: What about the IC50 (Human Nav1.5) of the same compound?
Answer: > 32 µM

Question: What about the IC50 [1] of the same compound?
Answer: > 32 µM

Question: Which results are given for `COCc1nocc1C(=O)Nc1cnc(-c2cc(Cl)ccc2OC(F)(F)F)c(N)n1` [Example 7]?
Answer: IC50 (Human Nav1.8): 4.6 µM; IC50 (Human Nav1.5): 21 µM; IC50 [1]: 17 µM

Question: Which IC50 (Human Nav1.8) does the source give for `COCc1nocc1C(=O)Nc1cnc(-c2ccccc2OC(F)(F)F)c(N)n1` [Example 6, N-{6-Amino-5-[2-(trifluoromethoxy)phenyl]pyrazin-2-yl}-3-(methoxymethyl)isoxazole-4-carboxamide] here?
Answer: 20 µM

Question: And the IC50 (Human Nav1.5)?
Answer: > 32 µM

Question: What about the IC50 [1] of the same compound?
Answer: 19 µM

Question: With `Nc1nc(NC(=O)c2conc2C(F)(F)F)cnc1-c1cc(F)ccc1C(F)(F)F` [Example 14, N-{6-Amino-5-[5-fluoro-2-(trifluoromethyl)phenyl]ovrazin-2-yl}-3-trifluoromethylisoxazole-4-carboxamide] as the compound, how does the IC50 (Human Nav1.8) read?
Answer: 2.5 µM

Question: And the IC50 (Human Nav1.5)?
Answer: > 32 µM

Question: And the IC50 [1]?
Answer: 31 µM

Question: With `CC(C)n1nccc1C(=O)Nc1cnc(-c2ccccc2OC(F)(F)F)c(N)n1` [Example 5, N-{6-Amino-5-[2-(trifluoromethoxy)phenyl]pyrazin-2-v1}-1-isopropyl-1H-pyrazole-5-carboxamide] as the compound, how does the IC50 (Human Nav1.8) read?
Answer: 19 µM

Question: And the IC50 (Human Nav1.5)?
Answer: > 32 µM

Question: And the IC50 [1]?
Answer: 29 µM

Question: Which IC50 (Human Nav1.8) does the source give for `Cn1nccc1C(=O)Nc1cnc(-c2cc(Cl)ccc2OC(F)(F)F)c(N)n1` [Example 11, N-{6-Amino-5-[5-chloro-2-(trifluoromethoxy)phenyl]pyrazin-2-yl}-methyl-1H-pyrazole-5-carboxamide] here?
Answer: 12 µM

Question: What about the IC50 (Human Nav1.5) of the same compound?
Answer: > 32 µM

Question: What about the IC50 [1] of the same compound?
Answer: > 32 µM

Question: For `COCc1oncc1C(=O)Nc1cnc(-c2ccccc2OC(F)(F)F)c(N)n1` [Example 9, N-{6-Amino-5-[2-(trifluoromethoxy)phenyl]pyrazin-2-yl}-5-(methoxymethyl)isoxazole-4-carboxamide], which IC50 (Human Nav1.8) is on record?
Answer: 20 µM

Question: What about the IC50 (Human Nav1.5) of the same compound?
Answer: > 32 µM

Question: And the IC50 [1]?
Answer: 30 µM

Question: `Cc1nocc1C(=O)Nc1cnc(-c2cc(F)ccc2C(F)(F)F)c(N)n1` [Example 10, N-{6-amino-5-[5-fluoro-2-(trifluoromethyl)phenyl]pyrazin-2-yl}-3-methylisoxazole-4-carboxamide] was tested. Which IC50 (Human Nav1.8) did it give?
Answer: 4.7 µM

Question: What about the IC50 (Human Nav1.5) of the same compound?
Answer: > 32 µM

Question: What about the IC50 [1] of the same compound?
Answer: > 32 µM

Question: Which IC50 (Human Nav1.8) does the source give for `CCOc1ccc(OC(F)(F)F)c(-c2ncc(NC(=O)c3conc3C)nc2N)c1` [Example 17, N-(6-Amino-5-[5-ethoxy-2-{trifluoromethoxy)phenyl]pyrazin-2-yl}-3-methylisoxazole-4-carboxamide] here?
Answer: 1.9 µM

Question: What about the IC50 (Human Nav1.5) of the same compound?
Answer: > 32 µM

Reference: patent US20100227872A1, “PYRAZINE DERIVATIVES” (priority 2007, published 2010)
